Data from patent US20220184222A1, “BICYCLE TOXIN CONJUGATES AND USES THEREOF” (BicycleTx Limited, priority 2019, published 2022).
Where “and” joins values, the source holds several entries; their conditions need not be identical. Equal values may be shown once.

System: PC-3 xenograft
Test: In vivo efficacy in PC-3 xenograft, male Balb/c nude mice (Example 3)
Set-up: species or system Mus Musculus
Description: The objective of the research is to evaluate the in vivo anti-tumor efficacy of test articles in treatment of PC-3 xenograft in Balb/c nude mice.
The tumor cells were maintained in F-12K medium supplemented with 10% heat inactivated fetal bovine serum at 37° C. in an atmosphere of 5% CO2 in air. The tumor cells were routinely subcultured twice weekly. The cells growing in an exponential growth phase were harvested and counted for tumor inoculation.
Each mouse was inoculated subcutaneously at the right flank with PC-3 tumor cells (10×10^6) in 0.2 ml of PBS for tumor development. 52 animals were randomized when the average tumor volume reached 454 mm^3. The test article administration and the animal numbers in each group were shown in the experimental design table.
The major endpoint was to see if the tumor growth could be delayed or mice could be cured. Tumor volume was measured three times weekly in two dimensions using a caliper, and the volume was expressed in mm3 using the formula: V=0.5 a×b^2 where a and b are the long and short diameters of the tumor, respectively. The tumor size was then used for calculations of T/C value. The T/C value (in percent) is an indication of antitumor effectiveness; T and C are the mean volumes of the treated and control groups, respectively, on a given day.
TGI was calculated for each group using the formula: TGI (%)=[1−(Ti−T0)/(Vi−V0)]×100; Ti is the average tumor volume of a treatment group on a given day, T0 is the average tumor volume of the treatment group on the day of treatment start, Vi is the average tumor volume of the vehicle control group on the same day with Ti, and V0 is the average tumor volume of the vehicle group on the day of treatment start.
Tumor growth inhibition rate for test articles in the PC-3 xenograft model was calculated based on tumor volume measurements at day 20 after the start of the treatment.

[1] = 15 mpk i.v. qw (treatment suspended after the first dosing), day 20

Structure (SMILES): CC(=O)O[C@@]12CO[C@@H]1C[C@H](O)[C@@]1(C)C(=O)[C@H](O)C3=C(C)[C@@H](OC(=O)[C@H](O)[C@@H](NC(=O)OC(C)(C)C)c4ccccc4)C[C@@](O)([C@@H](OC(=O)c4ccccc4)[C@H]21)C3(C)C [Docetaxel, reference compound]
- tumor relapse after ceasing the treatment (15 mg/kg qw): obvious tumor relapse
- animal body weight loss (15 mg/kg qw, after the first dosing): severe animal body weight loss
- Tumor volume (15 mpk i.v. qw (treatment suspended after the first dosing), day 0): 453 mm^3
- Tumor volume (15 mpk i.v. qw (treatment suspended after the first dosing), day 2): 584 mm^3
- Tumor volume (15 mpk i.v. qw (treatment suspended after the first dosing), day 4): 632 mm^3
- Tumor volume (15 mpk i.v. qw (treatment suspended after the first dosing), day 6): 636 mm^3
- Tumor volume (15 mpk i.v. qw (treatment suspended after the first dosing), day 8): 568 mm^3
- Tumor volume (15 mpk i.v. qw (treatment suspended after the first dosing), day 10): 408 mm^3
- Tumor volume (15 mpk i.v. qw (treatment suspended after the first dosing), day 13): 374 mm^3
- Tumor volume (15 mpk i.v. qw (treatment suspended after the first dosing), day 15): 388 mm^3
- Tumor volume (15 mpk i.v. qw (treatment suspended after the first dosing), day 17): 361 mm^3
- T/C [1]: 17.7%
- TGI [1]: 101.8%
- Tumor volume [1]: 419 mm^3 and 419 ± 31 mm^3
